Consider seven compounds from article PMC9313321 (Biomedicines, 2022).

The target of one assay is T1, Aβ42 fibrils (Homo sapiens, UniProt P05067).
T1 construct: Beta-amyloid protein, fragment 1-42; purchased Sigma-Aldrich
In words: TEM assay of Aβ42 fibrils in the absence of Cu(II). The conditions noted are these: 48 h 37 °C; for Aβ42 fibril width / Reduction of fibril width vs Aβ42 alone: TEM; for Aβ42 fibril width: CAβ42 = CL = 50 µM, Aβ42 alone 4.9 ± 0.2 nm; for Reduction of fibril width vs Aβ42 alone: 50 µM. In kind it is biochemical. On the procedure:
To perform the TEM assays, commercial Aβ42 purchased from Sigma-Aldrich was pre-treated with pure HFIP, a beta-sheet disruptor, to obtain homogeneous and monomeric Aβ42 [54]. Then, 222 µL of HFIP was added to 1 mg of Aβ42, after which the mixture was vortexed and aliquoted into Eppendorfs. The Eppendorfs were placed in a SpeedVac at 45 °C for 30 min until all HFIP was evaporated. Pre-treated Aβ42 was stored at −20 °C until use. To start the amyloid incubations, pre-treated Aβ42 was equilibrated at room temperature for 30 min. A solution of 5 mM was obtained by dissolution in DMSO and sonication for 5 min. Subsequently, 10 mM HCl was added to obtain a working Aβ42 solution of 200 µM. Stock solutions of Cu(II) and RIV–BIM compounds (4a–d, 5a,b and 5d) at 200 µM were prepared on the same day and working solutions of Aβ42, Aβ42 + Cu(II), Aβ42 + RIV–BIM and Aβ42 + Cu(II) + RIV–BIM (CAβ42 = CCu = CL = 50 µM) were prepared by diluting stock solutions in 10 mM HCl. Working solutions were incubated for 48 h at 37 °C before being analyzed by TEM. Samples were negatively stained with uranyl acetate 2% (w/v) and analyzed at 100 kv with a JEOL JEM 1400 Plus transmission electron microscope. Fibrils of Aβ42 alone were compared with Aβ42 + RIV–BIM fibrils, and fibrils of Aβ42 + Cu(II) were compared with Aβ42 + Cu(II) + RIV–BIM in order to evaluate the inhibition of the amyloid aggregation, and the widths and lengths of fibrils were measured for each sample. The ImageJ program was used to measure the fibrils (n = 200).
To perform the Aβ42 aggregation assays by TEM, fibrils were incubated using a fluorescence procedure previously described.
Amyloid fibrils remained disaggregated under the effect of the RIV–BIM compounds after 48 h of incubation. […] For each of the performed assays, fibril width was measured, and the results are graphed in Figure 5. Aβ42 fibril width in the absence of Cu(II) (Figure 5a) was 4.9 ± 0.2 nm, and it was modified in the presence of all RIV–BIM compounds: compound 4d was the only one that widened amyloid fibrils (6.7 ± 0.3 nm), while the rest of the compounds narrowed them (3.3–4.5 nm).

Assay [1] has as its target equine butyrylcholinesterase (eqBChE) (Equus caballus, UniProt P81908). In words: biochemical. As to conditions: for SI (selectivity index): IC50 (AChE)/IC50 (BChE), eeAChE and eqBChE; for IC50: eqBChE, 15 min pre-incubation, pH 8.00, read-out: BChE Inhib IC50. The procedure:
(§1) The inhibition of electric eel acetylcholinesterase (eeAChE) and equine butyrylcholinesterase (eqBChE), both obtained from Sigma-Aldrich (Burlington, MA, USA), was studied using an adaptation of Elmman’s method, as previously described. For this, tris(hydroxymethyl)aminomethane (TRIS) 50 mM buffer at pH = 8.00, 4-(2-hydroxyethyl)-1-piperazine-ethanesulfonic acid (HEPES) 50 mM buffer at pH = 8.00 and HEPES 50 mM buffer at pH = 8.00 with NaCl 50 mM and MgCl2 20 mM were prepared. […] Working solutions of AChI and BChI were prepared daily by the proper dilution of the stock solutions in distilled water. A working solution of 5,5′-dithiobis-(2-nitrobenzoic acid) (DTNB) 3 mM in HEPES (NaCl, MgCl2) was prepared daily and kept under darkness. Stock solutions of eeAChE and eqBChE were prepared by dissolving the lyophilized powder enzyme in 10 mL of TRIS buffer under ice and they were divided into aliquots of 50 and 5 UN mL^−1 that were stored at −20 °C until needed. Stock solutions of 1 mg of each ligand in 1 mL MeOH (with 20% of DMSO) were prepared and working solutions for each ligand were obtained by the corresponding dilution from the stock solutions. A control measurement with 5 replicates (without ligand) and a calibration curve of 5 points with 3 replicates per point was derived. […] A blank solution containing HEPES (399 μL) and MeOH (50 μL) was prepared at the same time. […] The experiments were performed twice.

In assay [2] the target is T2, electric eel acetylcholinesterase (eeAChE) (Electrophorus electricus, UniProt O42275).
T2 construct: purchased Sigma-Aldrich
The assay is described as follows: biochemical. On the procedure:
as §1

A short description of assay [3]: Radical scavenging activity (DPPH method). As to conditions: read-out: Antioxid. EC50, 30 min, absorbance 517 nm.
Experimental: To determine the radical scavenging activity (antioxidant activity) of the novel RIV–BIM hybrids, the DPPH method was performed as previously described in the literature [49]. Working solutions of 20 mg of the ligands were prepared daily in 10 mL of MeOH (with a 10% of DMSO). A working solution of 2 mg DPPH in 100 mL MeOH was prepared daily, and its absorbance was checked to be between 0.75 and 1.00 (a.u.). […] Each one of the calibrate points was kept for 30 min under darkness to allow the ligands to exert their antioxidant effects. After 30 min, an auto-zero was performed with MeOH in both sample and reference cells, using a UV–Vis spectrophotometer. […] The antioxidant activity (%AA) for each point was calculated using the following equation: %AA=ADPPH−Aligand/ADPPH×100
The radical scavenging activity of the RIV–BIM compounds was determined by a spectrophotometric method involving the 2,2-diphenyl-1-picrylhydrazyl (DPPH) free radical [35, 64].

Values joined by “and” are separate entries in the source; they are usually repeats but may differ in a detail not shown here. Equal values may be shown once.

Sequence of equine butyrylcholinesterase (eqBChE) (P81908 whole entry): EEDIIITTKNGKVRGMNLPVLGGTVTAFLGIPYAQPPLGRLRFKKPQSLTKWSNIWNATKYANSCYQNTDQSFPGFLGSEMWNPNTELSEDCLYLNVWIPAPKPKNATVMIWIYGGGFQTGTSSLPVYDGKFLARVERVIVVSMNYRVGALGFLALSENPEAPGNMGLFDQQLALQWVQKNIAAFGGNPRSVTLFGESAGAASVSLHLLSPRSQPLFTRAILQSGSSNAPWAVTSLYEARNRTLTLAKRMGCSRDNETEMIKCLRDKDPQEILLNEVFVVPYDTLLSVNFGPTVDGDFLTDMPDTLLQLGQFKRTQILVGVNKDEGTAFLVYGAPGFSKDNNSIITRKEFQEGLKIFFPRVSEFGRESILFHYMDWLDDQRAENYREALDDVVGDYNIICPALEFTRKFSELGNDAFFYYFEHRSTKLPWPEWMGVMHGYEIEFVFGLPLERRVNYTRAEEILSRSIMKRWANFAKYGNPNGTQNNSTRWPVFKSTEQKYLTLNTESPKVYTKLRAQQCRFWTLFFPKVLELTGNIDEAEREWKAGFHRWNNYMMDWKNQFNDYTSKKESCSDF
T2 sequence (O42275 24-633): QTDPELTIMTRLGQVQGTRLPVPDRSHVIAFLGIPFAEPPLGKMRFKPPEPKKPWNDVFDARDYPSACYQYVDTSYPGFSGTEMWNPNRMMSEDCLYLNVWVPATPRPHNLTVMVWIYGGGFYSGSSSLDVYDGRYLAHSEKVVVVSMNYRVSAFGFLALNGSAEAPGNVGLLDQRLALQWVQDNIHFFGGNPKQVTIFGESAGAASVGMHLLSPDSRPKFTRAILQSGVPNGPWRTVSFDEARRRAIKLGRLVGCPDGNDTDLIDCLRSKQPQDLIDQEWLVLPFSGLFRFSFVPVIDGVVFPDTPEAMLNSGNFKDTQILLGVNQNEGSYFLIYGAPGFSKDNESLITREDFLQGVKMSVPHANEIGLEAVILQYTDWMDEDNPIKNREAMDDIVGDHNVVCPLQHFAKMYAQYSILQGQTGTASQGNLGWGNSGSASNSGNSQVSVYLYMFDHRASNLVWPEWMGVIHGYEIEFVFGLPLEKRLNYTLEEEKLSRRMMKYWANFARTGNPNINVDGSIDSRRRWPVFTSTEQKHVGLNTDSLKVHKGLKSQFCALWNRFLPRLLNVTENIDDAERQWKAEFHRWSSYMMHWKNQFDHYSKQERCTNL
T1 sequence (P05067 672-713 limits assumed): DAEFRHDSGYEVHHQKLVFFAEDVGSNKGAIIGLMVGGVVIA

Take `CCN(C)C(=O)Oc1cccc(NC(=O)c2ccc3nc(-c4ccccc4O)[nH]c3c2)c1` [Compound 4a, 3-(2-(2-Hydroxyphenyl)-1H-benzo[d]imidazole-6-carboxamido)phenyl Ethylmethylcarbamate]: on Aβ42 fibrils, the “Appearance of Aβ42 fibrils in TEM images” value is listed as “shortest fibrils” and the Aβ42 fibril width stood at 4.1 nm. In addition, in assay [1], the “SI (selectivity index)” value stood at 3.03 and the IC50 was 5.85 ± 0.03 µM. Also, the IC50 in assay [2] was found to be 17.6 ± 0.6 µM.
Turning to `CCN(C)C(=O)Oc1cccc(CNC(=O)c2ccc3nc(-c4ccccc4O)[nH]c3c2)c1` [Compound 4b, 3-((2-(2-Hydroxyphenyl)-1H-benzo[d]imidazole-6-carboxamido)methyl) Phenyl Ethylmethylcarbamate], on Aβ42 fibrils, the “Appearance of Aβ42 fibrils in TEM images” value is “shortest fibrils” and the Aβ42 fibril width was 4.1 nm. In addition, the EC50 in assay [3] stood at 900 ± 100 µM. In assay [1], the “SI (selectivity index)” value was determined as 2.17 and the half-maximal inhibitory concentration (IC50) turned out to be 6.5 ± 0.4 µM. Further, the half-maximal inhibitory concentration (IC50) in assay [2] was determined as 14 ± 2 µM.
For `CCN(C)C(=O)Oc1cccc(CCNC(=O)c2ccc3nc(-c4ccccc4O)[nH]c3c2)c1` [Compound 4c, 3-(2-(2-(2-Hydroxyphenyl)-1H-benzo[d]imidazole-6-carboxamido)ethyl) Phenylethylmethylcarbamate], at Aβ42 fibrils, the “Appearance of Aβ42 fibrils in TEM images” value is “quite elongated fibrils” and the Aβ42 fibril width was determined as 4.1 nm. The EC50 in assay [3] is 10000 µM. Besides, in assay [1], the “SI (selectivity index)” value came out at 3.69 and the IC50 was 4.8 ± 0.1 µM. This compound showed a concentration for half-maximal inhibition (IC50) in assay [2] of 17.7 ± 0.8 µM.
As for `CCN(C)C(=O)Oc1ccc(CCCNC(=O)c2ccc3nc(-c4ccccc4O)[nH]c3c2)cc1` [Compound 4d, 4-(3-(2-(2-Hydroxyphenyl)-1H-benzo[d]imidazole-6-carboxamido)propyl) Phenyl Ethylmethylcarbamate], on Aβ42 fibrils, the “Appearance of Aβ42 fibrils in TEM images” value is reported as “quite elongated fibrils”; the Aβ42 fibril width is 6.7 nm and 6.7 ± 0.3 nm. For the same compound, in assay [1], the “SI (selectivity index)” value is 1.25 and the IC50 stood at 19.2 ± 0.7 µM. The compound also had an IC50 in assay [2] of 24 ± 1 µM.
Compound `CCN(C)C(=O)Oc1cccc(NC(=O)c2cccc3[nH]c(-c4ccccc4O)nc23)c1` [Compound 5a, 3-(2-(2-Hydroxyphenyl)-1H-benzo[d]imidazole-4-carboxamido)phenyl Ethylmethylcarbamate] showed an Aβ42 fibril width at Aβ42 fibrils of 4.5 nm. Besides, in assay [1], the “SI (selectivity index)” value is given as 19.6 and the half-maximal inhibitory concentration (IC50) worked out at 0.9 ± 0.1 µM. In addition, 17.6 ± 0.4 µM corresponded to half-maximal inhibition in assay [2] (IC50).
Regarding `CCN(C)C(=O)Oc1cccc(CNC(=O)c2cccc3[nH]c(-c4ccccc4O)nc23)c1` [Compound 5b, 3-((2-(2-Hydroxyphenyl)-1H-benzo[d]imidazole-4-carboxamido)methyl) Phenyl Ethylmethylcarbamate], on Aβ42 fibrils, the “Appearance of Aβ42 fibrils in TEM images” value is “shortest fibrils”; the “Reduction of fibril width vs Aβ42 alone” value is 22.4%; the Aβ42 fibril width is 3.8 nm and 3.8 ± 0.1 nm. In assay [1], the “SI (selectivity index)” value is reported as 105.7 and the IC50 stood at 0.3 ± 0.01 µM. Moreover, the IC50 in assay [2] came to 31.7 ± 0.1 µM.
For `CCN(C)C(=O)Oc1ccc(CCCNC(=O)c2cccc3[nH]c(-c4ccccc4O)nc23)cc1` [Compound 5d, 4-(3-(2-(2-Hydroxyphenyl)-1H-benzo[d]imidazole-4-carboxamido) Propyl) Phenyl Ethyl(methyl)carbamate], at Aβ42 fibrils, the “Reduction of fibril width vs Aβ42 alone” value stood at 32.7%; the Aβ42 fibril width was 3.3 nm and 3.3 ± 0.2 nm. Further, in assay [1], the “SI (selectivity index)” value was 12.6 and the concentration for half-maximal inhibition (IC50) amounted to 1.7 ± 0.2 µM. This compound also had an IC50 in assay [2] of 21.4 ± 0.4 µM.
